Laboratory results as given in patent EP0326196A2, “Aqueous pharmaceutical preparation” (AKZO N.V., priority 1988, dated 1989).
≈ marks a conversion by molar mass, not a printed value. Read-outs that look alike come from different tables or passages of the source.

What was measured:
[1] = Intra ocular pressure on application to the eyes; assay type: in vivo; conditions: applied to the eyes; contrary to other corticosteroids
[2] = Systemic effect after local administration; assay type: in vivo; conditions: administered locally
[3] = Solubility study of the Steroid in water / aqueous cyclodextrin solutions (phase-solubility, UV/VIS); assay type: physicochemical
Experimental: The solubility studies were performed according to the method described below which is well known in the litrature. Excess amounts of the Steroid were added to aqueous solutions of 2,6-dimethyl-β-cyclodextrin. These suspensions were shaken at room temperature during 5 days followed by an equilibration period of 3 days at room temperature. Then an aliquot was centrifuged and the supernatant was filtered through a 0,45 µm membrane filter (Millipore: HV4, Millex). The samples were analysed with the Perkin Elmer Lambda 5 UV/VIS spectrophotometer. The absorbance was read and compared with a blanc and standard calibration curve. […] After calculation of the amount of Steroid dissolved, a phase-solubility diagram was constructed by plotting the dissolved amounts of Steroid as a function of the concentration of 2,6-dimethyl-β-cyclodextrin (see Graph).
For comparative purposes the unexpected increase of solubility of the Steroid in water using 2,6-dimethyl-β-cyclodextrin, is compared with other more common cyclodextrins.

- increase of the intra ocular pressure (I.O.P.) [1]: did not increase I.O.P.
- increase of the solubility (factor) [3]: 10.000
- solubility ([3]; water with 2,6-dimethyl-β-cyclodextrin, in water with 2,6-dimethyl-β-cyclodextrin, room temperature, read-out: Solubility): 9000 µg/mL (≈ 24300 µM)
- solubility ([3]; water with α-cyclodextrin, in water with α-cyclodextrin, room temperature, read-out: Solubility): 40 µg/mL (≈ 108 µM)
- solubility ([3]; water with β-cyclodextrin, in water with β-cylodextrin, room temperature, read-out: Solubility): 50 µg/mL (≈ 135 µM)
- solubility ([3]; water with τ-cyclodextrin, in water with τ-cyclodextrin, room temperature, read-out: Solubility): 70 µg/mL (≈ 189 µM)
- solubility ([3]; water, 2,6-dimethyl-beta-cyclodextrin, 2,6-dimethyl-β-cyclodextrin as solubilizing agent, about 0,28 millimol per ml, read-out: maximal solubility of the Steroid in water): 9000 to 10000 µg/mL (≈ 24300 to 27000 µM)
- solubility ([3]; water, 2,6-dimethyl-beta-cyclodextrin, inclusion complex with 2,6-dimethyl-β-cyclodextrin, read-out: solubility of the Steroid in water): ~10000 µg/mL (≈ 27000 µM)
- solubility ([3]; water, no cyclodextrin, read-out: Solubility without cyclodextrin): 0.7 µg/mL (≈ 1.89 µM)
- solubility ([3]; water, no cyclodextrin, read-out: original solubility in water): 0.5 µg/mL (≈ 1.35 µM)
SMILES: CCC(=O)[C@@]1(C)[C@H](C)C[C@H]2[C@@H]3CCC4=CC(=O)C=C[C@]4(C)[C@H]3[C@@H](O)C[C@@]21C [Org 6216, 11β-hydroxy-16α,17α,21-trimethyl-▲¹ʼ⁴-pregnadiene-3,20-dione]
- systemic effect [2]: did not expose any significant systemic effect
